The source of these data is BindingDB's records for doi:10.7270/Q2SN07C4 (Vanderbilt Screening Center for GPCRs, Ion Channels and …, 2009).

Each structure is given as a SMILES string.

The assay has as its target T1, Muscarinic acetylcholine receptor M4 (Rattus norvegicus, UniProt P08485).
T1 sequence (P08485 whole entry): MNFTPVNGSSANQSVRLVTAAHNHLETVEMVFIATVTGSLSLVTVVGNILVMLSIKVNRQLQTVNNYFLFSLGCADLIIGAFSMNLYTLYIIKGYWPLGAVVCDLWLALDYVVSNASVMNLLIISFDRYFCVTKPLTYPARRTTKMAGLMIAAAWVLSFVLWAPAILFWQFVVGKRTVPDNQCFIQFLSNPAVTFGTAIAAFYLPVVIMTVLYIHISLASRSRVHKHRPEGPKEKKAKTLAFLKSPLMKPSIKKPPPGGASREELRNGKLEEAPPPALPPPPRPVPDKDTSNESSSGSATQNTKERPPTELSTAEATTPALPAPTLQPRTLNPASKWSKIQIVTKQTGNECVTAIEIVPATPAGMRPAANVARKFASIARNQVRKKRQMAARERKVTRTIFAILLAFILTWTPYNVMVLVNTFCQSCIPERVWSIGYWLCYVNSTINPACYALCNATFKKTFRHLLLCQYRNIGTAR
As to the kind of experiment: effects on NMS binding at M4, late-stage follow-up, mechanism study for M4 PAM project, biochemical, NMS competition, rat M4 (AID 1939).

`Cc1cc(C)c2c(N)c(C(=O)NCc3ccc4c(c3)OCO4)sc2n1` [3-amino-4,6-dimethyl-N-piperonyl-thieno[2,3-b]pyridine-2-carboxamide] displayed an EC50 of under 1420 nM.
